From US20110117220A1, “PREPARATION METHOD OF PLANT EXTRACT USING HIGH PRESSURE-ENZYMATIC DECOMPOSITION TECHNIQUE AND THE COSMETIC COMPOSITION CONTAINING THE EXTRACT” (AMOREPACIFIC CORPORATION, priority 2009, published 2011)
Converted amounts (≈) assume the structure as drawn. Values belong to the compound of their own block, whether it stands above or below them.

How the values were obtained:
transglutaminase-1 = assay: Promotion of transglutaminase-1 synthesis in human skin cells; assay type: cell-based; conditions: concentration 1.5 mM, 2 days
Protocol: Because the synthesis of transglutaminase-1 is essential for the formation and maintenance of the horny layer, the effect of promoting the synthesis of transglutaminase-1 can be considered to enhance the skin barrier and increase the skin moisturizing effect. Specifically, human skin cells were added to each well of a 96-well plate at a density of 5×10^4 cells/well and allowed to adhere to each well for 24 hours. The adhered cells were treated with each of the test materials, and after 2 days, the medium was removed, and the cells were stored in a refrigerator at −20° C. The treated cells were disrupted by subjecting the cells twice to freeze-thawing, and then treated with a mixture of acetone:ethanol (1:1, v/v) stored at −20° C. Then, the cells were allowed to stand at 4° C. for 30 minutes so as to be immobilized. Then, the cells were allowed to stand at room temperature to evaporate the organic solvent. […] The expression level of transglutaminase in the cells was determined by measuring the absorbance at 490 nm, and the correction of the measurement was carried out by measuring the background at 630 nm. The absorbance values of the treated cells were compared with the absorbance value of an untreated control group, thereby calculating the rate of promotion of transglutaminase-1 synthesis, and the results of the calculation are shown in Table 6 below.

tyrosinase = assay: Tyrosinase activity inhibition (method of Vanni et al); assay type: biochemical; conditions: concentration 200 mg/ml; 37° C., 10 minutes
Source text: In order to measure the skin whitening effect of the plant extract prepared using the high-pressure enzymatic decomposition technique, a tyrosinase activity inhibitory effect was compared between the green tea extract of Example 1 prepared using the high-pressure enzymatic decomposition technique of the present invention, the green tea extract of Comparative Example 3 prepared using the solvent extraction technique, and vitamin C, a typical whitening functional component.
The tyrosinase activity inhibitory effect was measured using the method of Vanni at al (A. Vanni, Annali Di Chimica, 80, p35, 1990). Specifically, 1.0 ml of 0.1M potassium phosphate buffer (pH 6.8), 1.0 ml of 0.3 mg/ml tyrosine aqueous solution and 0.1 ml of 1,250 units/ml tyrosinase (SIGMAT-7755) were mixed with each other, and 0.2 ml of each sample solution was added thereto at a concentration of 200 mg/ml. Then, the mixture was subjected to an enzymatic reaction at 37° C., for 10 minutes. The absorbance of the reaction solution was measured at 480 nm, and based on the results of the measurement, the tyrosinase activity inhibitory rate (%) of each sample was calculated according to the following equation 2. […]
wherein A: absorbance at 480 nm of a reaction solution to which the sample was not added; and B: absorbance at 480 nm of a reaction solution to which the sample was added.

[1] = DPPH radical elimination (antioxidant activity); assay type: biochemical; conditions: 100 μM DPPH in ethanol, 37° C., 30 minutes, absorbance 540 nm
Source text: In order to measure the antioxidant effect of the plant extract prepared using the high-pressure enzymatic decomposition technique, a DPPH radical elimination effect was compared between the green tea extract prepared using the high-pressure enzymatic decomposition technique of the present invention (Example 1), the green tea extract prepared using the solvent extraction technique (Comparative Example 3), and Baicalin, a known antioxidant substance.
To measure the antioxidant effects of these extracts, a method of evaluating antioxidant activity based on the change in absorbance caused by the reduction of the organic radical DPPH (1,1-diphenyl-2-picrylhydrazyl) was used. The decrease in absorbance caused by the inhibition of oxidation of DPPH compared to the control was measured, and the concentration (IC50) at which the absorbance was 50% of the control was defined as the effective antioxidant concentration. A lower IC50 value indicates a higher DPPH removal effect, indicating higher antioxidant activity.
Specifically, 10 μl of each of the extracts of Example 1 and Comparative Example 3 and Baicalin was added to 100 μM of a solution of DPPH in ethanol to prepare a reaction solution. The reaction solution was allowed to react at 37° C. for 30 minutes, and then measured for absorbance at 540 nm.

SMILES: [Ca+2].[Cl-].[Cl-] [Calcium chloride, calcium chloride]
Promotion rate of transglutaminase-1 synthesis (%) (transglutaminase-1): 169.9 ± 6.4%

Tyrosinase activity inhibitory rate (%) (tyrosinase): 20%
SMILES: O=C1O[C@H]([C@@H](O)CO)C(O)=C1O [Vitamin C, vitamin C]

IC50 (DPPH radical elimination) [1]: 3100 µg/mL (≈ 6.95 mM)
SMILES: O=C(O)[C@H]1O[C@@H](Oc2cc3oc(-c4ccccc4)cc(=O)c3c(O)c2O)[C@H](O)[C@@H](O)[C@@H]1O [Baicalin]
